# Key:
# Type in all cases: biochemical
# SIK1 = target: T1, SIK1 (Homo sapiens, UniProt P57059); test: ADP-Glo kinase assay, SIK1
# T1 construct: purchased Carna Biosciences 02-131
# Procedure, shortened: (§1)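 Kinase reactions ran 120 min at room temperature after ATP addition to enzyme-substrate mix. Remaining ATP was depleted (40 min) and ADP converted to ATP for luciferase detection (30 min), signal rising with activity. Final 1% DMSO and 10 μM staurosporine served as negative and positive controls.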
# SIK2 = target: T2, SIK2 (Homo sapiens, UniProt Q9H0K1); test: ADP-Glo kinase assay, SIK2
# T2 construct: purchased ThermoFisher Scientific PV4792
# Procedure, shortened: as §1
# SIK3 = target: T3, SIK3 (Homo sapiens, UniProt Q9Y2K2); test: ADP-Glo kinase assay, SIK3
# T3 construct: purchased SignalChem S12-11G-100
# Procedure, shortened: as §1
# T3 sequence (Q9Y2K2 59-365 limits assumed): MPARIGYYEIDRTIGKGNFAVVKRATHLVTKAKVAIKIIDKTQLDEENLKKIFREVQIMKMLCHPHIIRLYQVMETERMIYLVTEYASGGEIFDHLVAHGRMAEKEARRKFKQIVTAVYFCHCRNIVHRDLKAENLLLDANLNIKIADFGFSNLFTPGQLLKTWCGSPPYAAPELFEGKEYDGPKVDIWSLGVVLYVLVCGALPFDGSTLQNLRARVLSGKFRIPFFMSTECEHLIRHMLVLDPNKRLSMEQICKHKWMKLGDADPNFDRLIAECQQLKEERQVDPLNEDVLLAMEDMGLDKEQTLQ
# T2 sequence (Q9H0K1 whole entry): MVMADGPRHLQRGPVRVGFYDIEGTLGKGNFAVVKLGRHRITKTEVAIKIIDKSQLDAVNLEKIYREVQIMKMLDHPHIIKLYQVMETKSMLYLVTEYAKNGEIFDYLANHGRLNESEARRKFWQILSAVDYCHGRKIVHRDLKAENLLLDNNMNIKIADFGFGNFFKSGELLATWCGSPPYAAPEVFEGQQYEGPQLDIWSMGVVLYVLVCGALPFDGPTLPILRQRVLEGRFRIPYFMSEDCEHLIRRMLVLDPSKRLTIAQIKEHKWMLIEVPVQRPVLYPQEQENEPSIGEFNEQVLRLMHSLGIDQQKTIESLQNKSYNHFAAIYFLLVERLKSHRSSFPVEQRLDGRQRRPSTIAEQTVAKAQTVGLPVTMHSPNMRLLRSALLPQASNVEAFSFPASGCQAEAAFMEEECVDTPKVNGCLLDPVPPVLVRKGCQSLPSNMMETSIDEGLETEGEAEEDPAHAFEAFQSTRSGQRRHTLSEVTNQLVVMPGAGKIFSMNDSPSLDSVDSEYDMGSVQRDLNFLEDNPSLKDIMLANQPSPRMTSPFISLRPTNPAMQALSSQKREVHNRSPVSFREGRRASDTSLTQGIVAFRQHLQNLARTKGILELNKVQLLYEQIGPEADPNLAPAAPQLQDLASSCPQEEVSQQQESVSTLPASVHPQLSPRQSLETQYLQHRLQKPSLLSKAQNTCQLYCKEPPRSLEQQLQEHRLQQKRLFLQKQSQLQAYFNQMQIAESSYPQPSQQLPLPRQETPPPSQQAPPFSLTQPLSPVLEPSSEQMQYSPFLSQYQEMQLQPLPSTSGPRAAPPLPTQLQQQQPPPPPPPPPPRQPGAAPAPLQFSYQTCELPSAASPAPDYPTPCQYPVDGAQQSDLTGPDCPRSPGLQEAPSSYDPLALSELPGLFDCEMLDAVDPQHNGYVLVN
# T1 sequence (P57059 whole entry): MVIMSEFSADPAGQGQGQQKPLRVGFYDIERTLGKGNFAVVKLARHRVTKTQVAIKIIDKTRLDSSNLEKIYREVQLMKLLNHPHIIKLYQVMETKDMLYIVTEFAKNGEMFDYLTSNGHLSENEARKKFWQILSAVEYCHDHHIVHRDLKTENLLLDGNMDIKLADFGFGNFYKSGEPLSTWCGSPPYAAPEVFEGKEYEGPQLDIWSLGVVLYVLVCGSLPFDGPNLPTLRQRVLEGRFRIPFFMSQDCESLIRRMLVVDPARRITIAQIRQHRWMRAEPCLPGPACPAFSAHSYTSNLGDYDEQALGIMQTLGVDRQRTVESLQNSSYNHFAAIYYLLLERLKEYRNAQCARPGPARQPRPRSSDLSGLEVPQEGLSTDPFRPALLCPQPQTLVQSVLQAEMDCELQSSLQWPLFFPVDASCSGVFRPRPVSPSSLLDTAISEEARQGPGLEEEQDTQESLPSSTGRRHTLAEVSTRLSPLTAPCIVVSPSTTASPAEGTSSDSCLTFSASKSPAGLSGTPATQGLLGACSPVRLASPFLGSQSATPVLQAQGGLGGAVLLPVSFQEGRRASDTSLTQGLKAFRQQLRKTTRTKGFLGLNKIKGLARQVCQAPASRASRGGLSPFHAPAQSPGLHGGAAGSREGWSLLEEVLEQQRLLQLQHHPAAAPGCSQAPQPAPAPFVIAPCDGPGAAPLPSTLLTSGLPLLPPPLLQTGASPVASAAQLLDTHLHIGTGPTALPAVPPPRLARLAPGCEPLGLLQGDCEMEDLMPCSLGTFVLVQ
Compound,IC50 (SIK1),IC50 (SIK2),IC50 (SIK3)
"COc1cc(-c2cnc3cc(C(C)(C)C(O)C(C)C)ccn23)cc(OC(F)F)c1C(=O)NC1CC1 (stereo not drawn) [Cpd 202, N-cyclopropyl-2-(difluoromethoxy)-4-[7-(2-hydroxy-1,1,3-trimethyl-butyl)imidazo[1,2-a]pyridin-3-yl]-6-methoxy-benzamide]",> 500 nM,> 500 nM,10 to 100 nM
"COc1cc(-c2cnc3cc(C4CCN4)ccn23)cc(OC(F)F)c1C(=O)NC1CC1 (stereo not drawn) [Cpd 203, 4-[7-(azetidin-2-yl)imidazo[1,2-a]pyridin-3-yl]-N-cyclopropyl-2-(difluoromethoxy)-6-methoxy-benzamide]",> 500 nM,100 to 500 nM,10 to 100 nM
"COc1cc(-c2cnc3cc(C4CCN4C)ccn23)cc(OC(F)F)c1C(=O)NC1CC1 (stereo not drawn) [Cpd 204, N-cyclopropyl-2-(difluoromethoxy)-6-methoxy-4-[7-(1-methylazetidin-2-yl)imidazo[1,2-a]pyridin-3-yl]benzamide]",> 500 nM,> 500 nM,10 to 100 nM
"COc1cc(-c2cnc3cc(C(C)(O)CN(C)CCO)ccn23)cc(OC(F)F)c1C(=O)NC1CC1 (stereo not drawn) [Cpd 209, N-cyclopropyl-2-(difluoromethoxy)-4-[7-[1-hydroxy-2-[2-hydroxyethyl(methyl)amino]-1-methyl-ethyl]imidazo[1,2-a]pyridin-3-yl]-6-methoxy-benzamide]",> 500 nM,> 500 nM,10 to 100 nM
"COc1cc(-c2cnc3cc(C4(C)CN(C)CCO4)ccn23)cc(OC(F)F)c1C(=O)NC1CC1 (stereo not drawn) [Cpd 210, N-cyclopropyl-2-(difluoromethoxy)-4-[7-(2,4-dimethylmorpholin-2-yl)imidazo[1,2-a]pyridin-3-yl]-6-methoxy-benzamide]",> 500 nM,> 500 nM,10 to 100 nM
"COc1cc(-c2cnc3cc(C4(C)CN(C)CCO4)ccn23)cc(OC(F)F)c1C(=O)NCC(F)(F)F (stereo not drawn) [Cpd 214, 2-(difluoromethoxy)-4-[7-(2,4-dimethylmorpholin-2-yl)imidazo[1,2-a]pyridin-3-yl]-6-methoxy-N-(2,2,2-trifluoroethyl)benzamide]",> 500 nM,> 500 nM,100 to 500 nM
"COc1cn2c(-c3cc(OC)c(C(=O)NC4CC4)c(OC(F)F)c3)cnc2cc1C1COC1 [Cpd 215, N-cyclopropyl-2-(difluoromethoxy)-6-methoxy-4-[6-methoxy-7-(oxetan-3-yl)imidazo[1,2-a]pyridin-3-yl]benzamide]",100 to 500 nM,100 to 500 nM,10 to 100 nM
"COc1cc(-c2cnc3cc(C4(Cl)COC4)ccn23)cc(OC(F)F)c1C(=O)NC1CC1 [Cpd 217, 4-[7-(3-chlorooxetan-3-yl)imidazo[1,2-a]pyridin-3-yl]-N-cyclopropyl-2-(difluoromethoxy)-6-methoxy-benzamide]",> 500 nM,100 to 500 nM,10 to 100 nM
"COc1cc(-c2cnc3cc(C4(C)COCCO4)ccn23)cc(OC(F)F)c1C(=O)NC1CC1 (stereo not drawn) [Cpd 220, N-cyclopropyl-2-(difluoromethoxy)-6-methoxy-4-[7-(2-methyl-1,4-dioxan-2-yl)imidazo[1,2-a]pyridin-3-yl]benzamide]",> 500 nM,> 500 nM,10 to 100 nM
"COc1cc(-c2cnc3cc(C4(N5CCOCC5)COC4)ccn23)cc(OC(F)F)c1C(=O)NC1CC1 [Cpd 222, N-cyclopropyl-2-(difluoromethoxy)-6-methoxy-4-[7-(3-morpholinooxetan-3-yl)imidazo[1,2-a]pyridin-3-yl]benzamide]",> 500 nM,> 500 nM,100 to 500 nM
"COc1cc(-c2cnc3cc(C(C)(C)N4CCOCC4)ccn23)cc(OC(F)F)c1C(=O)NC1CC1 [Cpd 226, N-cyclopropyl-2-(difluoromethoxy)-6-methoxy-4-[7-(1-methyl-1-morpholino-ethyl)imidazo[1,2-a]pyridin-3-yl]benzamide]",> 500 nM,> 500 nM,10 to 100 nM
"COc1cc(-c2cnn3cc(C(C)(C)OCCO)ccc23)cc(OC(F)F)c1C(=O)NC1CC1 [Cpd 239, N-cyclopropyl-2-(difluoromethoxy)-4-[6-[1-(2-hydroxyethoxy)-1-methyl-ethyl]pyrazolo[1,5-a]pyridin-3-yl]-6-methoxy-benzamide]",> 500 nM,> 500 nM,10 to 100 nM
"COc1cc(-c2cnn3cc(C(C)(C)C(N)=O)ccc23)cc(OC(F)F)c1C(=O)NC1CC1 [Cpd 244, 4-[6-(2-amino-1,1-dimethyl-2-oxo-ethyl)pyrazolo[1,5-a]pyridin-3-yl]-N-cyclopropyl-2-(difluoromethoxy)-6-methoxy-benzamide]",> 500 nM,> 500 nM,10 to 100 nM
"COc1cc(-c2cnn3cc(C(C)(C)S(C)(=O)=O)ccc23)cc(OC(F)F)c1C(=O)N[C@@H]1C[C@@H]1F [Cpd 246, 2-(difluoromethoxy)-N-[(1R,2S)-2-fluorocyclopropyl]-6-methoxy-4-[6-(1-methyl-1-methylsulfonyl-ethyl)pyrazolo[1,5-a]pyridin-3-yl]benzamide]",> 500 nM,> 500 nM,10 to 100 nM
"COc1cc(-c2cnn3cc(C(C)(C)c4noc(C)n4)ccc23)cc(OC(F)F)c1C(=O)NC1CC1 [Cpd 247, N-cyclopropyl-2-(difluoromethoxy)-6-methoxy-4-[6-[1-methyl-1-(5-methyl-1,2,4-oxadiazol-3-yl)ethyl]pyrazolo[1,5-a]pyridin-3-yl]benzamide]",> 500 nM,> 500 nM,10 to 100 nM
"CCNC(=O)C(C)(C)c1ccc2c(-c3cc(OC)c(C(=O)NC4CC4)c(OC(F)F)c3)cnn2c1 [Cpd 249, N-cyclopropyl-2-(difluoromethoxy)-4-[6-[2-(ethylamino)-1,1-dimethyl-2-oxo-ethyl]pyrazolo[1,5-a]pyridin-3-yl]-6-methoxy-benzamide]",> 500 nM,> 500 nM,10 to 100 nM
"COc1cc(-c2cnn3cc(C(C)(C)C#N)ccc23)cc(F)c1C(=O)NC1CC1 [Cpd 252, 4-[6-(1-cyano-1-methyl-ethyl)pyrazolo[1,5-a]pyridin-3-yl]-N-cyclopropyl-2-fluoro-6-methoxy-benzamide]",> 500 nM,> 500 nM,100 to 500 nM
"COc1cc(-c2cnn3cc(C(C)(C)C#N)ccc23)cc(OC)c1C(=O)NC1CC1 [Cpd 259, 4-[6-(1-cyano-1-methyl-ethyl)pyrazolo[1,5-a]pyridin-3-yl]-N-cyclopropyl-2,6-dimethoxy-benzamide]",> 500 nM,> 500 nM,10 to 100 nM
"COCCOc1cc(-c2cnn3cc(C(C)(C)C#N)ccc23)cc(OC)c1C(=O)NC1CC1 [Cpd 260, 4-[6-(1-cyano-1-methyl-ethyl)pyrazolo[1,5-a]pyridin-3-yl]-N-cyclopropyl-2-methoxy-6-(2-methoxyethoxy)benzamide]",> 500 nM,> 500 nM,100 to 500 nM
"COc1cc(-c2cnn3cc(C(C)(C)C#N)ccc23)cc(OCCO)c1C(=O)NC1CC1 [Cpd 263, 4-[6-(1-cyano-1-methyl-ethyl)pyrazolo[1,5-a]pyridin-3-yl]-N-cyclopropyl-2-(2-hydroxyethoxy)-6-methoxy-benzamide]",> 500 nM,> 500 nM,100 to 500 nM
"CCCCOC(=O)NC(C)(C)c1ccc2c(-c3cc(OC)c(C(=O)N[C@@H]4C[C@@H]4F)c(OC(F)F)c3)cnn2c1 [Cpd 264, butyl N-[1-[3-[3-(difluoromethoxy)-4-[[(1R,2S)-2-fluorocyclopropyl]carbamoyl]-5-methoxy-phenyl]pyrazolo[1,5-a]pyridin-6-yl]-1-methyl-ethyl]carbamate]",> 500 nM,> 500 nM,10 to 100 nM
"COc1cc(-c2cnn3cc(C4(NCC#N)CCC4)ccc23)cc(OC(F)F)c1C(=O)N[C@@H]1C[C@@H]1F [Cpd 270, 4-[6-[1-(cyanomethylamino)cyclobutyl]pyrazolo[1,5-a]pyridin-3-yl]-2-(difluoromethoxy)-N-[(1R,2S)-2-fluorocyclopropyl]-6-methoxy-benzamide]",> 500 nM,> 500 nM,10 to 100 nM
"COc1cc(-c2cnn3cc(C4(NCC(F)F)CCC4)ccc23)cc(OC(F)F)c1C(=O)N[C@@H]1C[C@@H]1F [Cpd 271, 4-[6-[1-(2,2-difluoroethylamino)cyclobutyl]pyrazolo[1,5-a]pyridin-3-yl]-2-(difluoromethoxy)-N-[(1R,2S)-2-fluorocyclopropyl]-6-methoxy-benzamide]",> 500 nM,> 500 nM,10 to 100 nM
"COc1cc(-c2cnn3cc(C4(C(=O)N5CCOCC5)CCC4)ccc23)cc(OC(F)F)c1C(=O)N[C@@H]1C[C@@H]1F [Cpd 274, 2-(difluoromethoxy)-N-[(1R,2S)-2-fluorocyclopropyl]-6-methoxy-4-[6-[1-(morpholine-4-carbonyl)cyclobutyl]pyrazolo[1,5-a]pyridin-3-yl]benzamide]",> 500 nM,> 500 nM,100 to 500 nM
"CCN(CC)CC(C)(C)c1ccc2c(-c3cc(OC)c(C(=O)N[C@@H]4C[C@@H]4F)c(OC(F)F)c3)cnn2c1 [Cpd 276, 4-[6-[2-(diethylamino)-1,1-dimethyl-ethyl]pyrazolo[1,5-a]pyridin-3-yl]-2-(difluoromethoxy)-N-[(1R,2S)-2-fluorocyclopropyl]-6-methoxy-benzamide]",> 500 nM,> 500 nM,10 to 100 nM

# From patent publication US12391679B2, “Benzamide-substituted bicyclic imidazo- and pyrazolo-fused -pyridine, -pyrimide, and -pyridazine compounds for treatment of inflammatory diseases” (ONCO3R Therapeutics BV, priority 2019, dated 2025)
